In ChEMBL document CHEMBL1667845, “LC-MS and NMR characterization of the purple chromophore formed in the o-aminobenzaldehyde assay of dihydrodipicolinate synthase” (Bioorg Med Chem, 2011):
The source made the active and inactive calls. The calls are words filed in the database; no cut-off is given here.

Assays:
[1] = system: Escherichia coli; assay: Binding affinity to Escherichia coli DHDPS assessed as formation of purple chromophore after 70 mins by o-aminobenzaldehyde assay using UV-vis spectrophotometric analysis using UV-vis spectrophotometric analysis
[2] = system: Escherichia coli; assay: Binding affinity to Escherichia coli DHDPS assessed as formation of purple chromophore after 10 to 40 mins by o-aminobenzaldehyde assay
[3] = system: Escherichia coli; assay: Binding affinity to Escherichia coli DHDPS assessed as formation of purple chromophore after 30 to 60 mins by o-aminobenzaldehyde assay using UV-vis spectrophotometric analysis using LC-MS analysis

Activity [1]: Active
Activity [2]: Active
Activity [3]: Active
SMILES: O=C(O)C1=N[C@H](C(=O)O)C[C@H](O)C1
